Laboratory results published in US7998978B2 (Pfizer Inc., priority 2006, dated 2011).

Molecular target: T1, JNK1α1 (Homo sapiens, UniProt P45983)
T1 construct: catalytic domain containing amino acids 1-364 and N-terminal hexahistidine tag; hexahistidine (His6) (N); made in house; host or cells: E. coli BL21 (DE3)
Assay: Coupled spectrophotometric (PK/LDH) JNK1α1 assay: % inhibition and Ki determination
Type: biochemical
Conditions: @10 uM; read-out: % Inhibition JNK-1
Summary of the method: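 Initial rates were taken from the absorbance decrease at 340 nm at 30° C. Ki was fitted with a tight-binding model over 11 concentrations (top 100 μM); single-point inhibition was tested at 1 or 10 μM.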

T1 sequence (P45983 1-364): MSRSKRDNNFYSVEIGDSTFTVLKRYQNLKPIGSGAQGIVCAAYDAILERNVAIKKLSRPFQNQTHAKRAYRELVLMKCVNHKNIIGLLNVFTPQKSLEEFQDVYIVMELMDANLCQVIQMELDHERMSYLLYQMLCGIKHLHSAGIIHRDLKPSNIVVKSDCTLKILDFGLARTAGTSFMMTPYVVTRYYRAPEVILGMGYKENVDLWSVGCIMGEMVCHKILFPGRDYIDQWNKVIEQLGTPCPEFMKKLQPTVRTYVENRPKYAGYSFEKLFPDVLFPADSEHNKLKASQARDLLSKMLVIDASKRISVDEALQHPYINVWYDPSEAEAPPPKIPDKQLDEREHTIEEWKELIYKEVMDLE

For `c1cc(CNc2cc3cc(-c4cn[nH]c4)ccc3cn2)[nH]n1` [Example 229, 6-(1H-pyrazol-4-yl)-N-(1H-pyrazol-5-ylmethyl)isoquinolin-3-amine], which inhibition at 10 µM is on record?
Its inhibition at 10 µM is 17%.

How did the inhibition at 10 µM turn out when `Cn1ccnc1-c1ccc(CNc2cc3cc(-c4cn[nH]c4)ccc3cn2)cc1` [Example 230, N-[4-(1-methyl-1H-imidazol-2-yl)benzyl]-6-(1H-pyrazol-4-yl)isoquinolin-3-amine] was run?
Its inhibition at 10 µM is 43%.

Same assay, conditions: JNK-1

`CCS(=O)(=O)N[C@H]1CC[C@H](Nc2ncc3cccc(OC4CCOC4)c3n2)CC1` (stereo partly drawn) [Example 188, N-(trans-4-{[8-(tetrahydrofuran-3-yloxy)quinazolin-2-yl]amino}cyclohexyl)ethanesulfonamide] was tested. Which Ki did it give?
The Ki was 374 nM.

How did the Ki turn out when `FCCN[C@H]1CC[C@H](Nc2ncc3cccc(OC4CCOCC4)c3n2)CC1` [Example 189, trans-N-(2-fluoroethyl)-N′-[8-(tetrahydro-2H-pyran-4-yloxy)quinazolin-2-yl]cyclohexane-1,4-diamine] was run?
The Ki was 877 nM.

How did the Ki turn out when `CCN[C@H]1CC[C@H](Nc2ncc3cccc(OC4CCOCC4)c3n2)CC1` [Example 190, trans-N-ethyl-N′-[8-(tetrahydro-2H-pyran-4-yloxy)quinazolin-2-yl]cyclohexane-1,4-diamine] was run?
Its Ki is 342 nM.

Which Ki does the source give for `CC(C)N[C@H]1CC[C@H](Nc2ncc3cccc(OC4CCOCC4)c3n2)CC1` [Example 191, trans-N-isopropyl-N′-[8-(tetrahydro-2H-pyran-4-yloxy)quinazolin-2-yl]cyclohexane-1,4-diamine] here?
Its Ki is 698 nM.

Which Ki does the source give for `CCN[C@H]1CC[C@H](Nc2ncc3cccc(OC4CCOC4)c3n2)CC1` (stereo partly drawn) [Example 192, trans-N-ethyl-N′-[8-(tetrahydrofuran-3-yloxy)quinazolin-2-yl]cyclohexane-1,4-diamine] here?
The Ki was 1130 nM.

For `CC(C)N[C@H]1CC[C@H](Nc2ncc3cccc(OC4CCOC4)c3n2)CC1` (stereo partly drawn) [Example 193, trans-N-isopropyl-N′-[8-(tetrahydrofuran-3-yloxy)quinazolin-2-yl]cyclohexane-1,4-diamine], which Ki is on record?
Its Ki is 1410 nM.

For `FCCN[C@H]1CC[C@H](Nc2ncc3cccc(OC4CCOC4)c3n2)CC1` (stereo partly drawn) [Example 194, trans-N-(2-fluoroethyl)-N′-[8-(tetrahydrofuran-3-yloxy)quinazolin-2-yl]cyclohexane-1,4-diamine], which Ki is on record?
The Ki was 1460 nM.

Which Ki does the source give for `CS(=O)(=O)N1CCC(c2cccc3cnc(N[C@H]4CC[C@H](O)CC4)nc23)C1` (stereo partly drawn) [Example 195, trans-4-({8-[1-(methylsulfonyl)pyrrolidin-3-yl]quinazolin-2-yl}amino)cyclohexanol] here?
Its Ki is 81 nM.

How did the Ki turn out when `COC(=O)N1CCC(c2cccc3cnc(N[C@H]4CC[C@H](O)CC4)nc23)C1` (stereo partly drawn) [Example 196, methyl 3-{2-[(trans-4-hydroxycyclohexyl)amino]quinazolin-8-yl}pyrrolidine-1-carboxylate] was run?
The Ki was 56 nM.

`CC(=O)N1CCC(c2cccc3cnc(N[C@H]4CC[C@H](O)CC4)nc23)C1` (some centres unmarked) [Example 197] was tested. Which Ki did it give?
The Ki was 143 nM.

How did the Ki turn out when `CNCCOc1ccc(-c2cccc3cnc(N[C@H]4CC[C@H](O)CC4)nc23)cc1` [Example 199, trans-4-[(8-{4-[2-(methylamino)ethoxy]phenyl}quinazolin-2-yl)amino]cyclohexanol] was run?
The Ki was 98 nM.

For `Cc1ccccc1-c1cccc2cnc(N[C@H]3CC[C@H](O)CC3)nc12` [Example 200, trans-4-{[8-(2-methylphenyl)quinazolin-2-yl]amino} cyclohexanol], which Ki is on record?
Its Ki is 186 nM.

How did the Ki turn out when `CN(C)CCOc1ccc(-c2cccc3cnc(N[C@H]4CC[C@H](O)CC4)nc23)cc1` [Example 201, trans-4-[(8-{4-[2-(dimethylamino)ethoxy]phenyl}quinazolin-2-yl)amino]cyclohexanol] was run?
The Ki was 70 nM.

Which Ki does the source give for `NCCOc1ccc(-c2cccc3cnc(N[C@H]4CC[C@H](O)CC4)nc23)cc1` [Example 202, trans-4-({8-[4-(2-aminoethoxy)phenyl]quinazolin-2-yl}amino) cyclohexanol] here?
Its Ki is 77 nM.

How did the Ki turn out when `Cc1cc(OCCN(C)C)ccc1-c1cccc2cnc(N[C@H]3CC[C@H](O)CC3)nc12` [Example 203, trans-4-[(8-{4-[2-(dimethylamino)ethoxy]-2-methylphenyl}quinazolin-2-yl)amino] cyclohexanol] was run?
Its Ki is 815 nM.

With `COc1ccccc1-c1cccc2cnc(N[C@H]3CC[C@H](O)CC3)nc12` [Example 204, trans-4-{(8-(2-methoxyphenyl)quinazolin-2-yl]amino} cyclohexanol] as the compound, how does the Ki read?
The Ki was 303 nM.

For `O[C@H]1CC[C@H](Nc2ncc3cccc(-c4ccccc4)c3n2)CC1` [Example 205, trans-4-[(8-phenylquinazolin-2-yl)amino] cyclohexanol], which Ki is on record?
The Ki was 29 nM.

Which Ki does the source give for `CNC(=O)COc1c(C)ccc2cnc(N[C@H]3CC[C@H](O)CC3)nc12` [Example 206, 2-({2-[(trans-4-hydroxycyclohexyl)amino]-7-methylquinazolin-8-yl}oxy) N-methylacetamide] here?
Its Ki is 495 nM.

`Cc1ccc2cnc(N[C@H]3CC[C@H](O)CC3)nc2c1OCC(=O)N(C)C` [Example 207, 2-({2-[(trans-4-hydroxycyclohexyl)amino]-7-methylquinazolin-8-yl}oxy)-N,N-dimethylacetamide] was tested. Which Ki did it give?
The Ki was 1060 nM.

For `Cc1ccc2cnc(N[C@H]3CC[C@H](O)CC3)nc2c1OCC(=O)NC(C)C` [Example 208, 2-({2-[(trans-4-hydroxycyclohexyl)amino]-7-methylquinazolin-8-yl}oxy)-N-isopropylacetamide], which Ki is on record?
The Ki was 1130 nM.

Which Ki does the source give for `Cc1ccc2cnc(N[C@H]3CC[C@H](O)CC3)nc2c1OCC(=O)NC1CCOCC1` [Example 210, 2-({2-[(trans-4-hydroxycyclohexyl)amino]-7-methylquinazolin-8-yl}oxy)-N-(tetrahydro-2H-pyran-4-yl)acetamide] here?
Its Ki is 1710 nM.

`Cc1ccc2cnc(N[C@H]3CC[C@H](O)CC3)nc2c1OCC(=O)NC1CCS(=O)(=O)C1` (stereo partly drawn) [Example 211, N-(1,1-dioxidotetrahydro-3-thienyl)-2-({2-[(trans-4-hydroxycyclohexyl)amino]-7-methylquinazolin-8-yl}oxy)acetamide] was tested. Which Ki did it give?
The Ki was 1030 nM.

How did the Ki turn out when `Cc1ccc2cnc(N[C@H]3CC[C@H](O)CC3)nc2c1OCC(=O)N(C)CCO` [Example 212, 2-({2-[(trans-4-hydroxycyclohexyl)amino]-7-methylquinazolin-8-yl}oxy)-N-(2-hydroxyethyl)-N-methylacetamide] was run?
Its Ki is 1950 nM.

Which Ki does the source give for `Cc1ccc2cnc(N[C@H]3CC[C@H](O)CC3)nc2c1OCC(=O)N1CCOCC1` [Example 213, trans-4-{[7-methyl-8-(2-morpholin-4-yl-2-oxoethoxy)quinazolin-2-yl]amino} cyclohexanol] here?
The Ki was 780 nM.

For `Cc1ccc2cnc(N[C@H]3CC[C@H](O)CC3)nc2c1OCC(=O)N1CCS(=O)(=O)CC1` [Example 214, trans-4-({8-[2-(1,1-dioxidothiomorpholin-4-yl)-2-oxoethoxyl]-7-methylquinazolin-2-yl}amino) cyclohexanol], which Ki is on record?
The Ki was 1300 nM.

Which Ki does the source give for `OC1(c2cncnc2)CCC(Nc2cc3cc(-c4cn[nH]c4)ccc3cn2)CC1` (centres unmarked) [Example 215, 4-{[6-(1H-pyrazol-4-yl)isoquinolin-3-yl]amino}-1-pyrimidin-5-ylcyclohexanol] here?
Its Ki is 250 nM.

`c1cnc(N2CCC(Nc3cc4cc(-c5cn[nH]c5)ccc4cn3)CC2)nc1` [Example 216, 6-(1H-pyrazol-4-yl)-N-(1-pyrimidin-2-ylpiperidin-4-yl)isoquinolin-3-amine] was tested. Which Ki did it give?
The Ki was 480 nM.

For `CC(=O)NC1CCC(Nc2cc3cc(-c4cn[nH]c4)ccc3cn2)CC1` (centres unmarked) [Example 217, N-(4-{[6-(1H-pyrazol-4-yl)isoquinolin-3-yl]amino}cyclohexyl)acetamide], which Ki is on record?
Its Ki is 775 nM.

How did the Ki turn out when `c1cc2cnc(NC3CCOCC3)cc2cc1-c1cn[nH]c1` [Example 218, 6-(1H-pyrazol-4-yl)-N-(tetrahydro-2H-pyran-4-yl)isoquinolin-3-amine] was run?
The Ki was 843 nM.

How did the Ki turn out when `COc1cc2c(cc1CNc1cc3cc(-c4cn[nH]c4)ccc3cn1)N(C)C(=O)CC2` [Example 219, 6-methoxy-1-methyl-7-({[6-(1H-pyrazol-4-yl)isoquinolin-3-yl]amino}methyl)-3,4-dihydroquinolin-2(1H)-one] was run?
Its Ki is 1160 nM.

For `c1ccc2ncc(CNc3cc4cc(-c5cn[nH]c5)ccc4cn3)cc2c1` [Example 220, 6-(1H-pyrazol-4-yl)-N-(quinolin-3-ylmethyl)isoquinolin-3-amine], which Ki is on record?
Its Ki is 1930 nM.

How did the Ki turn out when `c1cnc2ccc(CNc3cc4cc(-c5cn[nH]c5)ccc4cn3)cc2c1` [Example 221, 6-(1H-pyrazol-4-yl)-N-(quinolin-6-ylmethyl)isoquinolin-3-amine] was run?
Its Ki is 2220 nM.

How did the Ki turn out when `c1ccc2nc(CNc3cc4cc(-c5cn[nH]c5)ccc4cn3)cnc2c1` [Example 222, 6-(1H-pyrazol-4-yl)-N-(quinoxalin-2-ylmethyl)isoquinolin-3-amine] was run?
Its Ki is 2950 nM.

For `c1cc(CNc2cc3cc(-c4cn[nH]c4)ccc3cn2)cc(-c2cncnc2)c1` [Example 223, 6-(1H-pyrazol-4-yl)-N-(3-pyrimidin-5-ylbenzyl)isoquinolin-3-amine], which Ki is on record?
Its Ki is 3280 nM.

For `c1cc(CNc2cc3cc(-c4cn[nH]c4)ccc3cn2)cc(-n2cccn2)c1` [Example 224, 6-(1H-pyrazol-4-yl)-N-[3-(1H-pyrazol-1-yl)benzyl]isoquinolin-3-amine], which Ki is on record?
Its Ki is 3370 nM.

Which Ki does the source give for `c1ccc(-c2nc(CNc3cc4cc(-c5cn[nH]c5)ccc4cn3)c[nH]2)cc1` [Example 225, N-[(2-phenyl-1H-imidazol-4-yl)methyl]-6-(1H-pyrazol-4-yl)isoquinolin-3-amine] here?
The Ki was 5160 nM.

For `N#Cc1cc(CNc2cc3cc(-c4cn[nH]c4)ccc3cn2)ccc1F` [Example 226, 2-fiuoro-5-({[6-(1H-pyrazol-4-yl)isoquinolin-3-yl]amino}methyl)benzonitrile], which Ki is on record?
The Ki was 5270 nM.

For `Cc1cc(CNc2cc3cc(-c4cn[nH]c4)ccc3cn2)ccn1` [Example 227, N-[(2-methylpyridin-4-yl)methyl]-6-(1H-pyrazol-4-yl)isoquinolin-3-amine], which Ki is on record?
The Ki was 6620 nM.

Which Ki does the source give for `CCN(CC)CCN1CCC(Nc2cc3cc(-c4cn[nH]c4)ccc3cn2)CCC1=O` (centres unmarked) [Example 228, 1-[2-(diethylamino)ethyl]-5-{[6-(1H-pyrazol-4-yl)isoquinolin-3-yl]amino}azepan-2-one] here?
Its Ki is 11500 nM.
